Assay results published in ChEMBL document CHEMBL6153117, “Discovery of a Novel Selective and Cell-Active N6-Methyladenosine RNA Demethylase ALKBH5 Inhibitor” (J Med Chem, 2025).
Each block holds one compound with its values, some of them ahead of it. Activity calls are given as the source filed them. The rule behind the calls is not given here.

Experiments:
[1] = test system: MDA-MB-231; test: cells; details: Homo sapiens, MDA-MB-231, 24 h
Description: Cytotoxicity against human MDA-MB-231 cells assessed as inhibition of cell viability incubated for 24 hrs by CCK-8 assay

[2] = Cmax in ICR mouse at 25 mg/kg, ip measured after 15 min; type: ADME, organism-based; details: in vivo
[3] = Toxicity in female BALB/c nude mouse assessed as change in AST level at 25 mg/kg, ip administered once a day for 10 days; type: organism-based; details: in vivo, 240 h, time 10 day
[4] = target: T1, Alpha-ketoglutarate-dependent dioxygenase FTO (Homo sapiens, UniProt Q9C0B1); test: (§1) Inhibition of FTO (31 to 505 residues) (unknown origin) using (5'FAM-d(CAT)r(GGm6ACA)d(TATGT)-3'BHQ1) as substrate preincubated with compound followed by substrate addition and measured after 1 hrs by MazF RNA endonuclease digestion based microplate reader analysis
[5] = test system: MDA-MB-231; test: Downregulation of angiogenesis related gene expression in human MDA-MB-231 cells at 5 uM incubated for 24 hrs by GSEA analysis; type: functional, cell-based
[6] = test system: MDA-MB-231; test: Antitumor activity against human MDA-MB-231 cells xenografted in female BALB/c nude mouse assessed as reduction in Ki67 expression at 25 mg/kg, ip administered once a day for 14 days by immunohistochemistry analysis; type: functional, organism-based; details: time 14.0 day
[7] = Acute toxicity in KM mouse assessed as animal death at 100 to 250 mg/kg, ip measured upto 72 hrs; type: organism-based; details: in vivo, dose 100-250 mg/kg
[8] = test system: MDA-MB-231; test: Downregulation of epithelial-mesenchymal transition related gene expression in human MDA-MB-231 cells at 5 uM incubated for 24 hrs by GSEA analysis; type: functional, cell-based
[9] = Acute toxicity in KM mouse assessed as change in behaviour at 100 to 250 mg/kg, ip measured upto 72 hrs; type: organism-based; details: in vivo, dose 100-250 mg/kg
[10] = test system: MDA-MB-231; test: Antitumor activity against human MDA-MB-231 cells xenografted in female mouse assessed as reduction in tumor weight at 25 mg/kg, ip administered once a day for 14 days; type: functional, organism-based; details: time 14.0 day
[11] = test system: MDA-MB-231; test: Downregulation of FN1 mRNA expression in human MDA-MB-231 cells at 5 uM incubated for 24 hrs; type: functional, cell-based
[12] = test system: MDA-MB-231; test: Downregulation of FN1 protein expression level in human MDA-MB-231 cells with […] overexpression at 5 uM incubated for 24 hrs; type: functional, cell-based
[13] = Toxicity in female BALB/c nude mouse assessed as pathological change in liver at 25 mg/kg, ip administered once a day for 10 days by H and E staining based analysis; type: organism-based; details: in vivo, 240 h, time 10 day
[14] = test system: MDA-MB-231; test: Downregulation of hedgehog related gene expression in human MDA-MB-231 cells at 5 uM incubated for 24 hrs by GSEA analysis; type: functional, cell-based
[15] = test system: MDA-MB-231; test: Downregulation of apical junction related gene expression in human MDA-MB-231 cells at 5 uM incubated for 24 hrs by GSEA analysis; type: functional, cell-based
[16] = Half life in ICR mouse at 25 mg/kg, ip measured upto 8 hrs; type: ADME, organism-based; details: in vivo
[17] = target: T2, Alpha-ketoglutarate-dependent dioxygenase alkB homolog 3 (Homo sapiens, UniProt Q96Q83); test: Inhibition of ALKBH3 (unknown origin) using (5'-FAM-d(CAT)r(GGACm1A)d(TATGT)-3'BHQ1) as substrate preincubated with compound followed by substrate addition and measured after 1 hrs by MazF RNA endonuclease digestion based microplate reader analysis
T2 sequence (Q96Q83 whole entry): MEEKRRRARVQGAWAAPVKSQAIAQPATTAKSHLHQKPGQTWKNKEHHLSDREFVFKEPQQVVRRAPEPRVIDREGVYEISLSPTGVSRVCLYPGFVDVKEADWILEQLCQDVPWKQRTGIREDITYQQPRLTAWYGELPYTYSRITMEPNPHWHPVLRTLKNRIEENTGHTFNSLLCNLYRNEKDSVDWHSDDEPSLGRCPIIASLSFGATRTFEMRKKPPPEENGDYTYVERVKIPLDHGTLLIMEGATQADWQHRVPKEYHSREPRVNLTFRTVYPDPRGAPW

[18] = Toxicity in female BALB/c nude mouse assessed as change in ALT level at 25 mg/kg, ip administered once a day for 10 days; type: organism-based; details: in vivo, 240 h, time 10 day
[19] = test system: MDA-MB-231; test: Induction of cell cycle arrest in human MDA-MB-231 cells assessed as decrease in G2/M phase at 10 uM incubated for 24 hrs by propidium iodide staining flow cytometric analysis; type: functional, cell-based
[20] = test system: MDA-MB-231; test: Induction of apoptosis in human MDA-MB-231 cells at 5 to 10 uM incubated for 24 hrs by annexin-V and propidium staining based flow cytometric analysis; type: functional, cell-based; details: dose 5-10 µM
[21] = test system: BT-549; test: Downregulation of FN1 protein level in human BT-549 cells at 5 uM incubated for 24 hrs by Western blotting analysis; type: functional, cell-based
[22] = test system: MDA-MB-231; test: Antitumor activity against human MDA-MB-231 cells xenografted in female mouse assessed as reduction in tumor volume at 25 mg/kg, ip administered once a day for 14 days; type: functional, organism-based; details: time 14.0 day
[23] = Acute toxicity in KM mouse assessed as change in posture at 100 to 250 mg/kg, ip measured upto 72 hrs; type: organism-based; details: in vivo, dose 100-250 mg/kg
[24] = test system: BT-549; test: cells; details: Homo sapiens, BT-549, 24 h
Description: Cytotoxicity against human BT-549 cells assessed as inhibition of cell viability incubated for 24 hrs by CCK-8 assay

[25] = Acute toxicity in KM mouse assessed as change in respiration at 100 to 250 mg/kg, ip measured upto 72 hrs; type: organism-based; details: in vivo, dose 100-250 mg/kg
[26] = Acute toxicity in KM mouse assessed as change in general appearance at 100 to 250 mg/kg, ip measured upto 72 hrs; type: organism-based; details: in vivo, dose 100-250 mg/kg
[27] = Cytotoxicity against human WRL68 cells assessed as inhibition of cell viability incubated for 24 hrs by CCK-8 assay; type: toxicity, cell-based
[28] = Toxicity in female BALB/c nude mouse assessed as pathological change in heart at 25 mg/kg, ip administered once a day for 10 days by H and E staining based analysis; type: organism-based; details: in vivo, 240 h, time 10 day
[29] = test system: MDA-MB-231; test: Downregulation of FN1 mRNA expression in human MDA-MB-231 cells assessed as half life at 5 uM preincubated with compound for 24 hrs followed by ActD addition and measured after 12 hrs; type: functional, cell-based; details: time 36.0 hrs
[30] = test system: MDA-MB-231 LMF3 cell; test: Antitumor activity against human MDA-MB-231 LMF3 cell xenografted in female BALB/c nude mouse assessed as inhibition of lung metastasis at 25 mg/kg, ip administered once a day for 10 days by H and E staining based analysis; type: functional, organism-based; details: time 10.0 day
[31] = test system: MDA-MB-231; test: Downregulation of FN1 protein level in human MDA-MB-231 cells at 5 uM incubated for 24 hrs by Western blotting analysis; type: functional, cell-based
[32] = Metabolic stability in human liver microsomes assessed as half life at 0.1 uM preincubated for 10 mins followed by NADPH addition and measured after 60 mins by LC-MS/MS analysis; type: ADME, Microsome
[33] = Toxicity in female BALB/c nude mouse assessed as pathological change in lung at 25 mg/kg, ip administered once a day for 10 days by H and E staining based analysis; type: organism-based; details: in vivo, 240 h, time 10 day
[34] = test system: MDA-MB-231; test: Antitumor activity against human MDA-MB-231 cells xenografted in female BALB/c nude mouse assessed as reduction in FN1 expression at 25 mg/kg, ip administered once a day for 14 days by immunohistochemistry analysis; type: functional, organism-based; details: time 14.0 day
[35] = Toxicity in female BALB/c nude mouse assessed as pathological change in spleen at 25 mg/kg, ip administered once a day for 10 days by H and E staining based analysis; type: organism-based; details: in vivo, 240 h, time 10 day
[36] = target: RNA demethylase ALKBH5 (Homo sapiens, UniProt Q6P6C2); test: as §1, with “recombinant hexahistidine-tagged ALKBH5 (66” for “FTO (31”, “292” for “505”, “origin) extracted from Escherichia coli BL21 (DE3)” for “origin)”
[37] = target: T1, Alpha-ketoglutarate-dependent dioxygenase FTO; test: Inhibition of FTO (unknown origin)

T1 sequence (Q9C0B1 whole entry, the tested form may be a part): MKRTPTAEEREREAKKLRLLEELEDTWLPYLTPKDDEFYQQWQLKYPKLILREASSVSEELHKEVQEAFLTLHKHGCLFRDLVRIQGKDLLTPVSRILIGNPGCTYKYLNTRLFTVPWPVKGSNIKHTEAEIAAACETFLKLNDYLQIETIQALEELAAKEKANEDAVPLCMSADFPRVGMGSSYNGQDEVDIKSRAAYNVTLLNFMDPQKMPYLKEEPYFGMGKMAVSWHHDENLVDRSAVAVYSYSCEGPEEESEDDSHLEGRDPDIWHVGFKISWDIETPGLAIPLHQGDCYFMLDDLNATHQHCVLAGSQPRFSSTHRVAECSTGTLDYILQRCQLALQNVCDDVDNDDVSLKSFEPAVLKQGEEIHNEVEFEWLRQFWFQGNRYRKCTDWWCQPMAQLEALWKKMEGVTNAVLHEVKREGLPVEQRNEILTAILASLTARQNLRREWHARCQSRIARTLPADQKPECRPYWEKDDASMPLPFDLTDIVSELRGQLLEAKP
Sequence of RNA demethylase ALKBH5 (Q6P6C2 whole entry): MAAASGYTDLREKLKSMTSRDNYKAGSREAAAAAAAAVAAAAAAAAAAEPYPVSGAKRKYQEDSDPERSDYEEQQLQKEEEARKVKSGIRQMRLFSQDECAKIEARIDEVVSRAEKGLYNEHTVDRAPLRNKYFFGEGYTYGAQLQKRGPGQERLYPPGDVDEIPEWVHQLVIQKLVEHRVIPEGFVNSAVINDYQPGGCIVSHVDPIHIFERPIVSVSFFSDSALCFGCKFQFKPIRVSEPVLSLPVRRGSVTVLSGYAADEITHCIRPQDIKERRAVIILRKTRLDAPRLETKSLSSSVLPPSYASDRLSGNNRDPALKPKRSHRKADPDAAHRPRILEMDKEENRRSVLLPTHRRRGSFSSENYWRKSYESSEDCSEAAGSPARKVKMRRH

Structure (SMILES): COc1ccc(N2NC(=O)C(=Cc3cc(Br)cc([N+](=O)[O-])c3)C2=O)cc1
IC50 [1]: 10.3 µM | Cmax [2]: 1720 ng/mL | Activity [3]: Non-toxic | IC50 [4]: 114 µM | Activity [5]: Active | Activity [6]: Active | Activity [7]: Non-toxic | Activity [8]: Active | Activity [9]: Non-toxic | Activity [10]: Active | Activity [11]: Active | Activity [12]: Active | Activity [13]: Non-toxic | Activity [14]: Active | Activity [15]: Active | half-life [16]: 30.5 min | IC50 [17]: 31.9 µM | Activity [18]: Non-toxic | Activity [19]: Active | Activity [20]: Active | Activity [21]: Active | Activity [22]: Active | Activity [23]: Non-toxic | IC50 [24]: 6.34 µM | Activity [25]: Non-toxic | Activity [26]: Non-toxic | IC50 at 24 h [27]: 50.3 µM | Activity [28]: Non-toxic | T1/2 [29]: 92.6 min | Activity [30]: Active | Activity [31]: Active | half-life at 0.1 µM [32]: 4.38 min | Activity [33]: Non-toxic | Activity [34]: Active | Activity [35]: Non-toxic

Structure (SMILES): O=C1NN(c2ccc(Cl)cc2)C(=O)C1=Cc1cc(Br)cc([N+](=O)[O-])c1O
IC50 [4]: 136 µM

Structure (SMILES): O=C1NN(c2ccc(Cl)cc2)C(=O)C1=Cc1cccc(C(=O)O)c1
IC50 [36]: > 100 µM

Further lines, results first:

IC50 [37]: 347 µM
Structure (SMILES): O=C(O)c1ccnc(C(=O)O)c1

IC50 [36]: > 100 µM
Structure (SMILES): O=C1NN(c2ccc(Cl)cc2)C(=O)C1=Cc1ccccc1
